From patent US6875761B2 (Eisai Co., Ltd., priority 1997, dated 2005)
pKi: −log10 of the molar value. Structures can show the parent of a compound that is named as a salt.

Columns and labels:
serotonin 1A receptor = biological target: T1, serotonin 1A receptor (Rattus norvegicus, UniProt P19327); test: Binding test on [3H] 8-hydroxy-dipropylaminotetralin, hippocampus receptor fraction; parameters: species or system SD rats; conditions: rat hippocampus receptor fraction, 0.5 nM [3H] 8-OH-DPAT, room temperature 30 min; read-out: 5HT1
T1 construct: To the receptor fraction of the hippocampus were added a test compound and 0.5 nM of [^3H]; 8-hydroxy-dipropylaminotetralin; from tissue; host or cells: rat hippocampus membrane fraction
T1 sequence (P19327 1-422): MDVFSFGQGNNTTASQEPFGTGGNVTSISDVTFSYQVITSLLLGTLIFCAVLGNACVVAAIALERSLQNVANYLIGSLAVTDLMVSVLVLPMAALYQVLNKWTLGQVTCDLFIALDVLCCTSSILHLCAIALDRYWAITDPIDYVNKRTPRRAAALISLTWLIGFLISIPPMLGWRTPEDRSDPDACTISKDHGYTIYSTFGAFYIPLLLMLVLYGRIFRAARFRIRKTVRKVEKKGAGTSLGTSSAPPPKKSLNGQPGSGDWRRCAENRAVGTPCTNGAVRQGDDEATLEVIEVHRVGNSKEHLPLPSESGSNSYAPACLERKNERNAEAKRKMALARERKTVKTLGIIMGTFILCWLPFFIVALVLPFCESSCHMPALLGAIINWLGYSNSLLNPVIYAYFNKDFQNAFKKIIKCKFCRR

serotonin 2 receptor = biological target: T2, serotonin 2 receptor (Rattus norvegicus, UniProt P14842); test: Binding test on [3H] ketanserin, cerebral cortex receptor fraction; parameters: species or system SD rats; conditions: 0.3 nM [3H] ketanserin, 37° C. 15 min, read-out: 5HT2
T2 construct: To the receptor fraction of the cerebral cortex were added a test compound and 0.3 nM of [^3H] ketanserin; from tissue; host or cells: rat cerebral cortex membrane fraction
T2 sequence (P14842 whole entry): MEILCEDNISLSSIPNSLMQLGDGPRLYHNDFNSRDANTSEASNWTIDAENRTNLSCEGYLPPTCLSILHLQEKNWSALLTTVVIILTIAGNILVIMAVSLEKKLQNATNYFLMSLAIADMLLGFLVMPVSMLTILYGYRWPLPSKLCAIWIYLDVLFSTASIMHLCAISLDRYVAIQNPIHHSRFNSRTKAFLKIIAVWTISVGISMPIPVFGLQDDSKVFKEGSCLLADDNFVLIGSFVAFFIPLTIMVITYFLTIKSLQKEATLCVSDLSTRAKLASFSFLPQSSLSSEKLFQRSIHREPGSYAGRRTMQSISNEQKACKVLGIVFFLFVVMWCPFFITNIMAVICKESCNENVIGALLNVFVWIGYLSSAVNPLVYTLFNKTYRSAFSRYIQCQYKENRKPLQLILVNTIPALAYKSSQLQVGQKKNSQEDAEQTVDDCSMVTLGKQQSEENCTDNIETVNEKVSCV
Description: Methysergide maleate was dissolved in distilled water before using.
Use was made of SD rats aged 6 to 8 weeks.
The rats were sacrificed by dcapitation to extirpate the cerebra.
Each mixture was homogenized by using a Teflon glass homogenizer and centrifuged as 1,000× g for 10 min. The supernatant thus obtained was further centrifuged at 20,000× g for 20 min. […] After centrifuging at 20,000× g for 20 min, the obtained precipitate was further suspended and centrifuged twice each in the same manner. […] This receptor fraction was stored at −80° C. until using.
To the receptor fraction of the cerebral cortex were added a test compound and 0.3 nM of [^3H] ketanserin and the resultant mixture was incubated at 37° C. for 15 min. Next, it was filtered through a glass filter with the use of a cell harvester. After washing the glass filter with 50 mM Tris hydrochloride (pH 7.4), the radioactivity of the receptor was measured with a liquid scintillation counter. The binding detected in the presence of 1 μM of methysergide was referred to as the nonspecific binding.
IC50 was calculated by the probit method, while Ki was determined in accordance with the following formula: Ki=IC50(1+c/Kd) wherein c represents the concentration of the radioisotope-labeled compound, and Kd represents the dissociation constant of the radioisotope-labeled compound with respect to the receptor determined by Scatchard's analysis.

## CCN1CCN(c2nc(-c3ccc(CNS(=O)(=O)CC)c(Cl)c3)cc3ccccc23)CC1 [Example 91, 3-(3-Chloro-4-ethylsulfonylaminomethylphenyl)-1-(4-ethylpiperazin-1-yl)isoquinoline Hydrochloride]
Serotonin 1A receptor
  pKi: 8.96
Serotonin 2 receptor
  pKi: 8.80

## CCCS(=O)(=O)NCc1ccc(-c2cc3ccccc3c(N3CCN(CC)CC3)n2)cc1Cl [Example 92, 3-(3-Chloro-4-propylsulfonylaminomethylphenyl)-1-(4-ethylpiperazin-1-yl)isoquinoline Hydrochloride]
Serotonin 1A receptor
  pKi: 9.05
Serotonin 2 receptor
  pKi: 9.15

## CCN1CCN(c2nc(-c3ccc(CN4CCOCC4)cc3)cc3ccccc23)CC1 [Example 93, 3-(4-Morpholinylmethylphenyl)-1-(4-ethylpiperazin-1-yl)isoquinoline Hydrochloride]
Serotonin 1A receptor
  pKi: 7.97
Serotonin 2 receptor
  pKi: 7.25

## CCN1CCN(c2nc(-c3ccc(CN4CCSCC4)cc3)cc3ccccc23)CC1 [Example 94, 3-(4-Thiomorpholinylmethylphenyl)-1-(4-ethylpiperazin-1-yl)isoquinoline Hydrochloride]
Serotonin 1A receptor
  pKi: 8.19
Serotonin 2 receptor
  pKi: 7.39

## CCN1CCN(c2nc(-c3ccc(N4CCOC4=O)cc3)cc3ccccc23)CC1 [Example 95, 3-[4-(3-Oxazolidinone)phenyl]-1-(4-ethylpiperazin-1-yl)isoquinoline Hydrochloride]
Serotonin 1A receptor
  pKi: 8.11
Serotonin 2 receptor
  pKi: 7.67

## CCN1CCN(c2nc(-c3ccc(N4CCC5(CC4)OCCO5)cc3)cc3ccccc23)CC1 [Example 96, 3-[4-(4,4-Ethylenedioxypiperidin-1-yl)phenyl]-1-(4-ethylpiperazin-1-yl)isoquinoline]
Serotonin 1A receptor
  pKi: 6.86
Serotonin 2 receptor
  pKi: 10.00

## CCN1CCN(c2nc(-c3ccc(N4CCC(O)CC4)cc3)cc3ccccc23)CC1 [Example 97, 1-(4-Ethylpiperazin-1-yl)-3-[4-(4-hydroxypiperidin-1-yl)phenyl]isoquinoline Trihydrochloride]
Serotonin 1A receptor
  pKi: 7.46
Serotonin 2 receptor
  pKi: 7.88

## CCN1CCN(c2nc(-c3ccc(N4CCC(OC)CC4)cc3)cc3ccccc23)CC1 [Example 98, 1-(4-Ethylpiperazin-1-yl)-3-[4-(4-methoxypiperidin-1-yl)phenyl]isoquinoline Trihydrochloride]
Serotonin 1A receptor
  pKi: 7.21
Serotonin 2 receptor
  pKi: 8.57

## CCN1CCN(c2nc(-c3ccc(N4CCN(C(C)=O)CC4)nc3)cc3ccccc23)CC1 [Example 99, 3-[2-(4-Acetylpiperazin-1-yl)pyridin-5-yl]-1-(4-ethylpiperazin-1-yl)isoquinoline Trihydrochloride]
Serotonin 1A receptor
  pKi: 8.46
Serotonin 2 receptor
  pKi: 8.21

## CCN1CCN(c2nc(-c3ccc(N4CCN(C(C)=O)CC4)cc3)cc3ccccc23)CC1 [Example 100, 3-[4-(4-Acetylpiperazin-1-yl)phenyl]-1-(4-ethylpiperazin-1-yl)isoquinoline Trihydrochloride]
Serotonin 1A receptor
  pKi: 7.90
Serotonin 2 receptor
  pKi: 8.25

## CCN1CCN(c2nc(C(C)c3ccc(OC)cc3)cc3ccccc23)CC1 (stereo not drawn) [Example 102, 3-[α-Methyl-(4-methoxybenzyl)]-1-(4-ethylpiperazin-1-yl)isoquinoline Oxalate]
Serotonin 1A receptor
  pKi: 6.89
Serotonin 2 receptor
  pKi: 6.88

## CCN1CCN(c2nc(C(O)c3ccc(OC)cc3)cc3ccccc23)CC1 (stereo not drawn) [Example 104, 3-[α-Hydroxy-(4-methoxybenzyl)]-1-(4-ethylpiperazin-1-yl)isoquinoline Oxalate]
Serotonin 1A receptor
  pKi: 6.96
Serotonin 2 receptor
  pKi: 7.00

## CCN1CCN(c2nc(CCc3ccc(OC)cc3)cc3ccccc23)CC1 [Example 106, 1-(1-Ethylpiperazin-4-yl)-3-(4-methoxyphenethyl)isoquinoline]
Serotonin 1A receptor
  pKi: 7.15
Serotonin 2 receptor
  pKi: 7.51

## CCN1CCN(c2nc(CCc3cccc(OCCO)c3)cc3ccccc23)CC1 [Example 108, 1-(1-Ethylpiperazin-4-yl)-3-[3-(2-hydroxyethoxy)phenethyl]isoquinoline]
Serotonin 1A receptor
  pKi: 6.81
Serotonin 2 receptor
  pKi: 7.47

## CCN1CCN(c2nc(CCCc3ccccc3OCCO)cc3ccccc23)CC1 [Example 110, 1-(1-Ethylpiperazin-4-yl)-3-[3-[2-(2-hydroxyethoxy)phenyl]propyl]isoquinoline]
Serotonin 1A receptor
  pKi: 7.23
Serotonin 2 receptor
  pKi: 6.96

## CCN1CCN(c2nc(C(=O)c3ccccc3OC)cc3ccccc23)CC1 [Example 111, 3-(2-Methoxyphenylcarbonyl)-1-(4-ethylpiperazin-1-yl)isoquinoline Oxalate]
Serotonin 1A receptor
  pKi: 7.99
Serotonin 2 receptor
  pKi: 7.05

## CCN1CCN(c2nc(C3CCc4ccc(OC)cc43)cc3ccccc23)CC1 (stereo not shown) [Example 114, 3-(6-Methoxyindan-1-yl)-1-(4-ethylpiperazin-1-yl)isoquinoline Oxalate]
Serotonin 1A receptor
  pKi: 6.78
Serotonin 2 receptor
  pKi: 7.30

## CCN1CCN(c2nc(-c3ccc4c(c3)CC(CO)CO4)cc3ccccc23)CC1 (stereo not shown) [Example 122, 3-(3-Hydroxymethylchroman-6-yl)-1-(4-Ethylpiperazin-1-yl)Isoquinoline Hydrochloride]
Serotonin 1A receptor
  pKi: 7.40
Serotonin 2 receptor
  pKi: 7.70

## CCN1CCN(c2nc(-c3ccc(OCCO)nc3)cc3ccccc23)CC1 [Example 125, 1-(1-Ethylpiperazin-4-yl)-3-[2-(2-Hydroxyethoxy)Pyridin-5-yl]Isoquinoline]
Serotonin 1A receptor
  pKi: 7.57
Serotonin 2 receptor
  pKi: 8.16

## CCCC(=O)Nc1ccc(-c2cc3ccccc3c(N3CCN(CC)CC3)n2)cn1 [Example 128, 3-(2-propylcarbonylaminopyridin-5-yl)-1-(4-ethylpiperazin-1-yl)isoquinoline hydrochloride]
Serotonin 1A receptor
  pKi: 7.65
Serotonin 2 receptor
  pKi: 8.52

## CCN1CCN(c2nc(-c3ccc(S(C)(=O)=O)nc3)cc3ccccc23)CC1 [Example 129, 3-[(2-Methylsulfonylpyridin)-5-yl]-1-(4-Ethylpiperazin-1-yl)Isoquinoline Hydrochloride]
Serotonin 1A receptor
  pKi: 7.67
Serotonin 2 receptor
  pKi: 7.74

## CCN1CCN(c2nc(-c3ccc(S(=O)(=O)CC)nc3)cc3ccccc23)CC1 [Example 130, 3-[(2-Ethylsulfonylpyridin)-5-yl]-1-(4-Ethylpiperazin-1-yl)Isoquinoline Hydrochloride]
Serotonin 1A receptor
  pKi: 7.61
Serotonin 2 receptor
  pKi: 7.77

## CCCCc1ccc(-c2cc3ccccc3c(N3CCN(CC)CC3)n2)cn1 [Example 131, 1-(1-Ethylpiperazin-4-yl)-3-(2-Butylpyridin-5-yl)Isoquinoline]
Serotonin 1A receptor
  pKi: 8.19
Serotonin 2 receptor
  pKi: 8.24

## CCN1CCN(c2nc(-c3ccc(CCCF)cn3)cc3ccccc23)CC1 [Example 132, 1-(1-Ethylpiperazin-4-yl)-3-[5-(3-Fluoropropyl)Pyridin-2-yl)Isoquinoline]
Serotonin 1A receptor
  pKi: 8.82
Serotonin 2 receptor
  pKi: 7.63

## CCN1CCN(c2nc(-c3ccc(CCCF)nc3)cc3ccccc23)CC1 [Example 133, 1-(1-Ethylpiperazin-4-yl)-3-[2-(3-Fluoropropyl)Pyridin-5-yl]Isoquinoline]
Serotonin 1A receptor
  pKi: 8.54
Serotonin 2 receptor
  pKi: 8.21

## CCN1CCN(c2nc(-c3ccc(CCCO)cn3)cc3ccccc23)CC1 [Example 134, 1-(1-Ethylpiperazin-4-yl)-3-[5-(3-Hydroxypropyl)Pyridin-2-yl]Isoquinoline]
Serotonin 1A receptor
  pKi: 8.31
Serotonin 2 receptor
  pKi: 7.91

## CCN1CCN(c2nc(-c3ccc(CCCO)nc3)cc3ccccc23)CC1 [Example 135, 1-(1-Ethylpiperazin-4-yl)-3-[2-(3-Hydroxypropyl)Pyridin-5-yl]Isoquinoline]
Serotonin 1A receptor
  pKi: 8.47
Serotonin 2 receptor
  pKi: 7.72

## CCN1CCN(c2nc(-c3ccc(CCC(C)O)nc3)cc3ccccc23)CC1 (stereo not shown) [Example 136, 1-(1-Ethylpiperazin-4-yl)-3-[2-(3-Hydroxybutyl)Pyridin-5-yl]Isoquinoline]
Serotonin 1A receptor
  pKi: 8.43
Serotonin 2 receptor
  pKi: 7.94

## CCN1CCN(c2nc(-c3ccc(CCCCO)nc3)cc3ccccc23)CC1 [Example 137, 1-(1-Ethylpiperazin-4-yl)-3-[2-(4-Hydroxybutyl)Pyridin-5-yl]Isoquinoline]
Serotonin 1A receptor
  pKi: 8.14
Serotonin 2 receptor
  pKi: 7.49

## CCN1CCN(c2nc(-c3ccc(CCC(C)(C)O)nc3)cc3ccccc23)CC1 [Example 138, 1-(1-Ethylpiperazin-4-yl)-3-[2-(3-Hydroxy-3-Methylbutyl)Pyridin-5-yl]Isoquinoline Oxalate]
Serotonin 1A receptor
  pKi: 7.87
Serotonin 2 receptor
  pKi: 8.26

## CCN1CCN(c2nc(-c3cncc(CCCOC)c3)cc3ccccc23)CC1 [Example 140, 1-(1-Ethylpiperazin-4-yl)-3-[3-(3-Methoxypropyl)Pyridin-5-yl]Isoquinoline Oxalate]
Serotonin 1A receptor
  pKi: 7.66
Serotonin 2 receptor
  pKi: 7.44

## CCN1CCN(c2nc(-c3ccc(CCCOC)cn3)cc3ccccc23)CC1 [Example 141, 1-(1-Ethylpiperazin-4-yl)-3-[5-(3-Methoxypropyl)Pyridin-2-yl]Isoquinoline Oxalate]
Serotonin 1A receptor
  pKi: 8.54
Serotonin 2 receptor
  pKi: 7.69

## CCOCCCc1ccc(-c2cc3ccccc3c(N3CCN(CC)CC3)n2)cn1 [Example 142, 1-(1-Ethylpiperazin-4-yl)-3-[2-(3-Ethoxypropyl)Pyridin-5-yl]Isoquinoline Oxalate]
Serotonin 1A receptor
  pKi: 8.48
Serotonin 2 receptor
  pKi: 7.82

## CCN1CCN(c2nc(-c3ccc(CCCOC(C)C)nc3)cc3ccccc23)CC1 [Example 143, 1-(1-Ethylpiperazin-4-yl)-3-[2-[3-(2-Propoxy)Propyl]Pyridin-5-yl]Isoquinoline Oxalate]
Serotonin 1A receptor
  pKi: 8.66
Serotonin 2 receptor
  pKi: 7.76

## CCN1CCN(c2nc(-c3ccc(CCC(C)OC)nc3)cc3ccccc23)CC1 (stereo not shown) [Example 144, 1-(1-Ethylpiperazin-4-yl)-3-[2-(3-Methoxybutyl)Pyridin-5-yl]Isoquinoline Oxalate]
Serotonin 1A receptor
  pKi: 8.32
Serotonin 2 receptor
  pKi: 7.91
